Series [1] relates to left ventricle myocardium. As to the kind of experiment: Cross-sectional delayed enhancement MRI/CMR study of gadolinium contrast uptake, voxel intensity and auto-correlation. It counts as in vivo, human. An excerpt:
In particular embodiments of the present invention, a patient may be taken to the MRI suite where he/she will be placed supine on the MRI table and ECG leads and respiratory gating bellows applied. MRI scans may be performed on, for example, a 1.5 Tesla GE CVi scanner with a phased array surface coil applied around the chest to optimize signal to noise ratio, or another MRI scanner. Images may be acquired using a fast gradient echo technique, with the repetition time (TR) and echo time (TE) based on the R-R interval of the subject. Multislice coronal, gradient echo sequences may be used to obtain scout images of the chest and locate the left ventricle. Subjects may be injected intravenously with a gadolinium contrast agent (0.2 mmole/kg Gadoteridol (Prohance, Bracco Diagnostics, Princeton, N.J.)). The time of this injection may be recorded.
However, this method may not be as well suited for a process that causes necrosis to susceptible tissue throughout the LV myocardium in a randomly distributed pattern (e.g. a global injury). To overcome this limitation, voxels, and in some embodiments all the voxels, within three short axis slice positions (apex, middle, and base) within the LV may be sampled and the intensity and x, y, and z coordinates of each voxel identified in 3-dimensional space (FIG. 6). FIG. 6 is a 3-Dimensional depiction of 3 short axis (basal, middle, and apical) planes of the left ventricle. […] During analysis, the image intensity of each voxel and the x, y, and z coordinates are recorded. […]
Correction for variations in the intensity of voxels in the images may also be identified by determining the intensity of voxels within a target region, typically, a 1 cm diameter circular ROI placed outside the heart. For each apical, middle, and basal slice, the number of pixels at a given intensity may be determined and the intensity from the ROI external to the heart subtracted from the pixels. In certain embodiments, for each slice, the mean intensity of all voxels and the peak voxel intensity in the highest 40% of the distribution may be determined (FIG. 6). […]

The conditions of series [2]: cited from earlier work.

Consider `COc1cccc2c1C(=O)c1c(O)c3c(c(O)c1C2=O)C[C@@](O)(C(=O)CO)C[C@@H]3O[C@H]1C[C@H](N)[C@H](O)[C@H](C)O1` [doxorubicin], for which the “mean intensity of contrast uptake in voxel histogram” value in series [1] (doxorubicin cardiomyopathy patient, middle short axis view, 20 minutes after contrast, low in healthy patient, highest in infarct patient) is given as “intermediate”. Moreover, the “percentage of voxel intensities in aggregate histograms vs normal age matched controls” value in series [1] (patients with cardiomyopathy due to doxorubicin, about 20 minutes after contrast) is given as “increased percentage of intensities”. Moreover, in series [1] (patients with cardiomyopathy secondary to doxorubicin, p<0.001 vs myocardial infarction), the “pattern of contrast uptake within the LV (serial auto-correlation)” value is listed as “random”. In addition, the “patients experiencing toxicity who do so after receipt of approximately 100 mg/m^2” value in series [2] (approximately 100 mg/m^2, usually at T=1 month) is recorded as “about 85%”. Besides, the “dose above which irreversible cardiomyopathy with serious congestive heart failure is a significant risk” value in series [2] (patients, cumulative dose) was 500-550 mg/m^2. Moreover, the “dose that precipitates congestive heart failure” value in series [2] (report of 1487 patients studied over a seven year period) is on record as 30-880 mg/m^2.
